{
  "source": "patent US8574563B2",
  "about": "(Bristol-Myers Squibb Company, priority 2006, dated 2013)",
  "data": [
    {"tested_on": "HCV 1b-377-neo replicon cells", "experiment": "HCV replicon assay, HCV 1b-377-neo replicon cells (1b FRET)", "assay_type": "cell-based, Hepatitis C virus genotype 1b", "conditions": "HCV 1b-377-neo replicon cells; HCV 1b genotype; read-out: EC50 range against HCV 1b (Table 2, Range)", "in_short": "(§1)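 Compounds were tested in genotype 1b subgenomic replicon cells carrying a neomycin marker, alongside a matched replicon line with an NS5A Y2065H substitution that confers resistance to a reference NS5A inhibitor.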", "units": {"EC50": "nM"}, "values": [
      {"smiles": "O=C([C@@H](c1ccccc1)N1CCCC1)N1CCC[C@H]1c1ncc(-c2ccc(-c3ccc(-c4cnc([C@@H]5CCCN5C(=O)[C@@H](c5ccccc5)N5CCOCC5)[nH]4)cc3)cc2)[nH]1", "note": "[Example 96, 4-((1R)-2-oxo-1-phenyl-2-((2S)-2-(5-(4′-(2-((2S)-1-((2R)-2-phenyl-2-(pyrrolidinyl)acetyl)-2-pyrrolidinyl)-1H-imidazol-5-yl)-4-biphenylyl)-1H-imidazol-2-yl)-1-pyrrolidinyl)ethyl)morpholine]", "EC50": "0.001 to 0.999"},
      {"smiles": "CN(C)[C@@H](C(=O)N1CCC[C@H]1c1nc(-c2ccc(-c3ccc(-c4cn(C)c([C@@H]5CCCN5C(=O)[C@@H](c5ccccc5)N(C)C)n4)cc3)cc2)cn1C)c1ccccc1", "note": "(single isomer, unassigned) [151 isomer 1]", "EC50": "1 to 99"}
    ]},
    {"tested_on": "HCV 1b-377-neo replicon cells", "experiment": "HCV replicon assay, HCV 1b-377-neo replicon cells (1b FRET)", "assay_type": "cell-based, Hepatitis C virus genotype 1b", "conditions": "Hepatitis C virus, HCV 1b-377-neo replicon cells; HCV 1b genotype; read-out: EC50 range against HCV 1b (Table 2, Range)", "in_short": "as §1", "units": {"EC50": "nM"}, "values": [
      {"smiles": "COC(=O)N[C@@H](C(=O)N[C@@H](C)c1ncc(-c2cnc(-c3ccc(-c4cnc([C@@H]5CCCN5C(=O)[C@H](NC(=O)OC)c5ccccc5)[nH]4)cc3)nc2)[nH]1)c1ccccc1", "note": "[Example 152j-17, methyl ((1R)-2-((2S)-2-(5-(4-(5-(2-((1S)-1-(((2R)-2-((methoxycarbonyl)amino)-2-phenylacetyl)amino)ethyl)-1H-imidazol-5-yl)-2-pyrimidinyl)phenyl)-1H-imidazol-2-yl)-1-pyrrolidinyl)-2-oxo-1-phenylethyl)carbamate]", "EC50": "0.001 to 0.999"},
      {"smiles": "CCCCN[C@@H](C(=O)N1CCC[C@H]1c1nc(-c2ccc(-c3ccc(-c4cnc([C@@H]5CCCN5C(=O)[C@H](NCCCC)c5ccccc5)[nH]4)cc3)cc2)c[nH]1)c1ccccc1", "note": "[Example F17, N-((1R)-2-((2S)-2-(4-(4′-(2-((2S)-1-((2R)-2-(butylamino)-2-phenylacetyl)-2-pyrrolidinyl)-1H-imidazol-5-yl)-4-biphenylyl)-1H-imidazol-2-yl)-1-pyrrolidinyl)-2-oxo-1-phenylethyl)-1-butanamine]", "EC50": "0.001 to 0.999"},
      {"smiles": "CC(C)C(C(=O)N1CCC[C@H]1c1ncc(-c2ccc(-c3ccc(-c4cnc([C@@H]5CCCN5C(=O)C(C(C)C)N(C)Cc5ccccc5)[nH]4)cc3)cc2)[nH]1)N(C)Cc1ccccc1", "note": "(stereo partly drawn) [Example 24-4g, 1,1′-(4,4′-biphenyldiylbis(1H-imidazole-5,2-diyl(2S)-2,1-pyrrolidinediyl))bis(N-benzyl-N,3-dimethyl-1-oxo-2-butanamine)]", "EC50": "1000 to 10000"},
      {"smiles": "COC(=O)N[C@@H](C(=O)N1CCC[C@H]1c1ncc(-c2ccc(-c3ccc(-c4cnc([C@@H]5CCCN5C(=O)Cc5nnn[nH]5)[nH]4)cc3)cc2)[nH]1)c1ccccc1", "note": "[Example 65, methyl ((1R)-2-oxo-1-phenyl-2-((2S)-2-(5-(4′-(2-((2S)-1-(1H-tetrazol-5-ylacetyl)-2-pyrrolidinyl)-1H-imidazol-5-yl)-4-biphenylyl)-1H-imidazol-2-yl)-1-pyrrolidinyl)ethyl)carbamate]", "EC50": "1 to 99"},
      {"smiles": "O=C(c1ccccc1)N1CCC[C@H]1c1ncc(-c2ccc(-c3ccc(-c4cnc([C@@H]5CCCN5C(=O)c5ccccc5)[nH]4)cc3)cc2)[nH]1", "note": "[Example 6, 5,5′-(4,4′-biphenyldiyl)bis(2-((2S)-1-benzoyl-2-pyrrolidinyl)-1H-imidazole)]", "EC50": "1 to 99"},
      {"smiles": "CC(=O)CCC(=O)N1CCC[C@H]1c1ncc(-c2ccc(-c3ccc(-c4cnc([C@@H]5CCCN5C(=O)[C@@H](c5ccccc5)N(C)C)[nH]4)cc3)cc2)[nH]1", "note": "[Example 94-37, 5-((2S)-2-(5-(4′-(2-((2S)-1-((2R)-2-(dimethylamino)-2-phenylacetyl)-2-pyrrolidinyl)-1H-imidazol-5-yl)-4-biphenylyl)-1H-imidazol-2-yl)-1-pyrrolidinyl)-5-oxo-2-pentanone]", "EC50": "1 to 99"},
      {"smiles": "CN(C)CC(=O)N1CCC[C@H]1c1ncc(-c2ccc(-c3ccc(-c4cnc([C@@H]5CCCN5C(=O)CN(C)C)[nH]4)cc3)cc2)[nH]1", "note": "[Example 14, 2,2′-(4,4′-biphenyldiylbis(1H-imidazole-5,2-diyl(2S)-2,1-pyrrolidinediyl))bis(N,N-dimethyl-2-oxoethanamine)]", "EC50": "100 to 999"},
      {"smiles": "COC(=O)N[C@@H](C(=O)N(C)[C@@H](C)c1ncc(-c2ccc(-c3ncc(-c4cnc([C@@H]5CCCN5C(=O)[C@@H](c5ccccc5)N5CCCCC5)[nH]4)cn3)cc2)[nH]1)c1ccccc1", "note": "[Example 152l-1, methyl ((1R)-2-(methyl((1S)-1-(4-(4-(5-(2-((2S)-1-((2R)-2-phenyl-2-(1-piperidinyl)acetyl)-2-pyrrolidinyl)-1H-imidazol-5-yl)-2-pyrimidinyl)phenyl)-1H-imidazol-2-yl)ethyl)amino)-2-oxo-1-phenylethyl)carbamate]", "EC50": "0.001 to 0.999"},
      {"smiles": "COC(=O)N[C@H](C(=O)N1CCC[C@H]1c1ncc(-c2ccc(-c3ccc(-c4cnc([C@@H]5CCCN5C(=O)[C@H]5CCCC[C@H]5NC(=O)OC)[nH]4)cc3)cc2)[nH]1)C(C)C", "note": "[cj-93, methyl ((1S)-1-(((2S)-2-(5-(4′-(2-((2S)-1-(((1S,2R)-2-((methoxycarbonyl)amino)cyclohexyl)carbonyl)-2-pyrrolidinyl)-1H-imidazol-5-yl)-4-biphenylyl)-1H-imidazol-2-yl)-1-pyrrolidinyl)carbonyl)-2-methylpropyl)carbamate]", "EC50": "0.001 to 0.999"},
      {"smiles": "O=C([C@@H](c1ccccc1)N1CCCCC1)N1C[C@@H](F)C[C@H]1c1ncc(-c2ccc(-c3ccc(-c4cnc([C@@H]5C[C@H](F)CN5C(=O)[C@@H](c5ccccc5)N5CCCCC5)[nH]4)cc3)cc2)[nH]1", "note": "[Example 24-7]", "EC50": "0.001 to 0.999"},
      {"smiles": "O=C(Cc1ccccc1F)N1CCC[C@H]1c1ncc(-c2ccc(-c3ccc(-c4cnc([C@@H]5CCCN5C(=O)[C@@H](c5ccccc5)N5CCCCC5)[nH]4)cc3)cc2)[nH]1", "note": "[Example 107-28]", "EC50": "0.001 to 0.999"},
      {"smiles": "CCN(CC)[C@@H](C(=O)N1CCC[C@H]1c1ncc(-c2ccc(-c3ccc(-c4cnc([C@@H]5CCCN5C(=O)C(C)(C)NC(=O)OC)[nH]4)cc3)cc2)[nH]1)c1ccccc1", "note": "[Example M34, methyl (2-((2S)-2-(5-(4′-(2-((2S)-1-((2R)-2-(diethylamino)-2-phenylacetyl)-2-pyrrolidinyl)-1H-imidazol-5-yl)-4-biphenylyl)-1H-imidazol-2-yl)-1-pyrrolidinyl)-1,1-dimethyl-2-oxoethyl)carbamate]", "EC50": "1 to 99"},
      {"smiles": "CN1CCN(C(C(=O)N2CCC[C@H]2c2ncc(-c3ccc(-c4ccc(-c5cnc([C@@H]6CCCN6C(=O)[C@@H](c6ccccc6)N6CCCC6)[nH]5)cc4)cc3)[nH]2)c2ccccc2)CC1", "note": "(stereo partly drawn) [Example 98, 1-methyl-4-(2-oxo-1-phenyl-2-((2S)-2-(5-(4′-(2-((2S)-1-((2R)-2-phenyl-2-(1-pyrrolidinyl)acetyl)-2-pyrrolidinyl)-1H-imidazol-5-yl)-4-biphenylyl)-1H-imidazol-2-yl)-1-pyrrolidinyl)ethyl)piperazine]", "EC50": "0.001 to 0.999"},
      {"smiles": "CN1CCN(C(=O)N[C@@H](C(=O)N2CCC[C@H]2c2ncc(-c3ccc(-c4ccc(-c5cnc([C@@H]6CCCN6C(=O)[C@@H]6CCCO6)[nH]5)cc4)cc3)[nH]2)c2ccccc2)CC1", "note": "[Example 117, 4-methyl-N-((1R)-2-oxo-1-phenyl-2-((2S)-2-(5-(4′-(2-((2S)-1-((2S)-tetrahydro-2-furanylcarbonyl)-2-pyrrolidinyl)-1H-imidazol-5-yl)-4-biphenylyl)-1H-imidazol-2-yl)-1-pyrrolidinyl)ethyl)-1-piperazinecarboxamide]", "EC50": "0.001 to 0.999"},
      {"smiles": "COC(=O)N[C@@H](C(=O)N(C)[C@@H](C)c1ncc(-c2ccc(-c3ncc(-c4cnc([C@@H]5CCCN5C(=O)[C@H](NC(=O)OC)c5ccccc5)[nH]4)cn3)cc2)[nH]1)c1ccccc1", "note": "[Example 152j-21, methyl ((1R)-2-((2S)-2-(5-(2-(4-(2-((1S)-1-(((2R)-2-((methoxycarbonyl)amino)-2-phenylacetyl)(methyl)amino)ethyl)-1H-imidazol-5-yl)phenyl)-5-pyrimidinyl)-1H-imidazol-2-yl)-1-pyrrolidinyl)-2-oxo-1-phenylethyl)carbamate]", "EC50": "0.001 to 0.999"},
      {"smiles": "COC(=O)N[C@@H](C(=O)N1CCC[C@H]1c1nc(-c2cc(-c3ccc(-c4cnc([C@@H]5CCCN5C(=O)[C@H](NC(=O)OC)c5ccccc5)[nH]4)cc3)ccc2OC)c[nH]1)c1ccccc1", "note": "[Example D34, dimethyl ((4-methoxy-3,4′-biphenyldiyl)bis(1H-imidazole-5,2-diyl(2S)-2,1-pyrrolidinediyl((1R)-2-oxo-1-phenyl-2,1-ethanediyl))) biscarbamate]", "EC50": "0.001 to 0.999"},
      {"smiles": "C[C@H](NC(=O)[C@@H](c1ccccc1)N(C)C)c1ncc(-c2cnc(-c3ccc(-c4cnc([C@@H]5CCCN5C(=O)[C@@H](c5ccccc5)N(C)C)[nH]4)cc3)nc2)[nH]1", "note": "[Example 152j-16, (2R)-2-(dimethylamino)-N-((1S)-1-(5-(2-(4-(2-((2S)-1-((2R)-2-(dimethylamino)-2-phenylacetyl)-2-pyrrolidinyl)-1H-imidazol-5-yl)phenyl)-5-pyrimidinyl)-1H-imidazol-2-yl)ethyl)-2-phenylacetamide]", "EC50": "0.001 to 0.999"},
      {"smiles": "CC(=O)N[C@@H](C(=O)N1CCC[C@H]1c1ncc(-c2ccc(-c3ccc(-c4cnc([C@@H]5CCCN5C(=O)[C@H](NC(C)=O)C(C)C)[nH]4)cc3)cc2)[nH]1)C(C)C", "note": "[Example 27, N-((1R)-1-(((2S)-2-(5-(4′-(2-((2S)-1-((2R)-2-acetamido-3-methylbutanoyl)-2-pyrrolidinyl)-1H-imidazol-5-yl)-4-biphenylyl)-1H-imidazol-2-yl)-1-pyrrolidinyl)carbonyl)-2-methylpropyl)acetamide]", "EC50": "1 to 99"},
      {"smiles": "COC(=O)N[C@@H](C(=O)N1CCC[C@H]1c1ncc(-c2ccc(-c3ccc(-c4cnc([C@@H]5CCCN5C(=O)C(c5ccccc5)c5ccccc5)[nH]4)cc3)cc2)[nH]1)c1ccccc1", "note": "[Example 84-38, methyl ((1R)-2-((2S)-2-(5-(4′-(2-((2S)-1-(diphenylacetyl)-2-pyrrolidinyl)-1H-imidazol-5-yl)-4-biphenylyl)-1H-imidazol-2-yl)-1-pyrrolidinyl)-2-oxo-1-phenylethyl)carbamate]", "EC50": "0.001 to 0.999"}
    ]}
  ]
}
